Data: PubChem BioAssay (NCI)
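Following 48 hours of exposure in 96-well plates, responses at five concentrations were used to interpolate endpoints linearly. GI50 is the concentration that inhibits growth by half. TGI denotes the concentration required for complete inhibition of growth.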

Legend:
Assay in all cases: NCI-60 cell line screen, 48 h
HOP-92 NSCLC = tested on: HOP-92 NSCLC
HCT-15 colon = tested on: HCT-15 colon
SW-620 colon = tested on: SW-620 colon
HT29 colon = tested on: HT29 colon
OVCAR-3 ovarian = tested on: OVCAR-3 ovarian
UO-31 renal = tested on: UO-31 renal
PC-3 prostate = tested on: PC-3 prostate
LOX IMVI melanoma = tested on: LOX IMVI melanoma
NCI-H522 lung = tested on: NCI-H522 lung
UACC-62 melanoma = tested on: UACC-62 melanoma
786-0 renal = tested on: 786-0 renal
COLO 205 colon = tested on: COLO 205 colon
SF-539 CNS = tested on: SF-539 CNS
A498 renal = tested on: A498 renal
DU-145 prostate = tested on: DU-145 prostate
A549 NSCLC = tested on: A549 NSCLC
IGROV1 ovarian = tested on: IGROV1 ovarian
ACHN renal = tested on: ACHN renal
EKVX NSCLC = tested on: EKVX NSCLC
SR leukemia = tested on: SR leukemia
K-562 leukemia = tested on: K-562 leukemia
HS 578T breast = tested on: HS 578T breast
MCF7 breast = tested on: MCF7 breast
NCI/ADR-RES ovarian = tested on: NCI/ADR-RES ovarian
CAKI-1 renal = tested on: CAKI-1 renal
CCRF-CEM leukemia = tested on: CCRF-CEM leukemia
BT-549 breast = tested on: BT-549 breast
SF-295 CNS = tested on: SF-295 CNS
SF-268 CNS = tested on: SF-268 CNS
M14 melanoma = tested on: M14 melanoma
T-47D breast = tested on: T-47D breast
MALME-3M melanoma = tested on: MALME-3M melanoma
SN12C renal = tested on: SN12C renal
NCI-H23 lung = tested on: NCI-H23 lung
UACC-257 melanoma = tested on: UACC-257 melanoma
SK-MEL-28 melanoma = tested on: SK-MEL-28 melanoma
SK-OV-3 ovarian = tested on: SK-OV-3 ovarian
HCC-2998 colon = tested on: HCC-2998 colon
SNB-75 CNS = tested on: SNB-75 CNS
MDA-MB-231 breast = tested on: MDA-MB-231 breast
NCI-H226 lung = tested on: NCI-H226 lung
HOP-62 NSCLC = tested on: HOP-62 NSCLC
RXF 393 renal = tested on: RXF 393 renal
SNB-19 CNS = tested on: SNB-19 CNS
RPMI-8226 leukemia = tested on: RPMI-8226 leukemia
HL-60(TB) leukemia = tested on: HL-60(TB) leukemia
SK-MEL-2 melanoma = tested on: SK-MEL-2 melanoma
HCT-116 colon = tested on: HCT-116 colon
TK-10 renal = tested on: TK-10 renal
OVCAR-8 ovarian = tested on: OVCAR-8 ovarian
MOLT-4 leukemia = tested on: MOLT-4 leukemia
OVCAR-5 ovarian = tested on: OVCAR-5 ovarian
U251 CNS = tested on: U251 CNS
SK-MEL-5 melanoma = tested on: SK-MEL-5 melanoma
NCI-H460 lung = tested on: NCI-H460 lung
OVCAR-4 ovarian = tested on: OVCAR-4 ovarian
MDA-MB-435 = tested on: MDA-MB-435
KM12 colon = tested on: KM12 colon
MDA-MB-468 breast = tested on: MDA-MB-468 breast

Q: Which results are given for `O=C(Cc1ccc2c(c1)CN(C1CCC(=O)NC1=O)C2=O)NCCc1ccccc1` (stereo unspecified)?
A: GI50 (HOP-92 NSCLC): 13.4 nM; TGI (HOP-92 NSCLC): 146 nM; GI50 (HCT-15 colon): 166 nM; TGI (HCT-15 colon): 4750 nM; GI50 (SW-620 colon): 39.1 nM; TGI (SW-620 colon): > 100000 nM; GI50 (HT29 colon): 530 nM; TGI (HT29 colon): > 100000 nM; GI50 (OVCAR-3 ovarian): 2240 nM; TGI (OVCAR-3 ovarian): > 100000 nM; GI50 (UO-31 renal): 226 nM; TGI (UO-31 renal): 6270 nM; GI50 (PC-3 prostate): 36.7 nM; TGI (PC-3 prostate): > 100000 nM; GI50 (LOX IMVI melanoma): > 100000 nM; TGI (LOX IMVI melanoma): > 100000 nM; GI50 (NCI-H522 lung): > 20200 nM; TGI (NCI-H522 lung): > 100000 nM; GI50 (UACC-62 melanoma): 2460 nM; TGI (UACC-62 melanoma): > 100000 nM; GI50 (786-0 renal): 124 nM; TGI (786-0 renal): > 100000 nM; GI50 (COLO 205 colon): 43.8 nM; TGI (COLO 205 colon): 1280 nM; GI50 (SF-539 CNS): 564 nM; TGI (SF-539 CNS): > 100000 nM; GI50 (A498 renal): 297 nM; TGI (A498 renal): 7760 nM; GI50 (DU-145 prostate): 20800 nM; TGI (DU-145 prostate): > 100000 nM; GI50 (A549 NSCLC): 663 nM; TGI (A549 NSCLC): > 100000 nM; GI50 (IGROV1 ovarian): 33.6 nM; TGI (IGROV1 ovarian): 1080 nM; GI50 (ACHN renal): 5320 nM; TGI (ACHN renal): > 100000 nM; TGI (EKVX NSCLC): > 100000 nM; GI50 (SR leukemia): > 76500 nM; TGI (SR leukemia): > 100000 nM; GI50 (K-562 leukemia): 581 nM; TGI (K-562 leukemia): > 100000 nM; GI50 (HS 578T breast): 38.5 nM; TGI (HS 578T breast): 3100 nM; GI50 (MCF7 breast): 200 nM; TGI (MCF7 breast): > 100000 nM; GI50 (NCI/ADR-RES ovarian): 5940 nM; TGI (NCI/ADR-RES ovarian): > 100000 nM; GI50 (CAKI-1 renal): 276 nM; TGI (CAKI-1 renal): > 100000 nM; GI50 (CCRF-CEM leukemia): < 10 nM; GI50 (BT-549 breast): 19.2 nM; TGI (BT-549 breast): 75.5 nM; GI50 (SF-295 CNS): 530 nM; TGI (SF-295 CNS): > 100000 nM; GI50 (SF-268 CNS): 510 nM; TGI (SF-268 CNS): > 100000 nM; GI50 (M14 melanoma): 114 nM; TGI (M14 melanoma): > 56400 nM; GI50 (T-47D breast): 21.8 nM; TGI (T-47D breast): 414 nM; GI50 (MALME-3M melanoma): 13.5 nM; TGI (MALME-3M melanoma): 74.6 nM; GI50 (SN12C renal): 188 nM; TGI (SN12C renal): > 30900 nM; GI50 (NCI-H23 lung): > 60800 nM; TGI (NCI-H23 lung): > 100000 nM; GI50 (UACC-257 melanoma): > 100000 nM; TGI (UACC-257 melanoma): > 100000 nM; GI50 (SK-MEL-28 melanoma): 589 nM; TGI (SK-MEL-28 melanoma): > 100000 nM; GI50 (SK-OV-3 ovarian): 484 nM; TGI (SK-OV-3 ovarian): > 85700 nM; GI50 (HCC-2998 colon): 45.1 nM; TGI (HCC-2998 colon): 1320 nM; GI50 (SNB-75 CNS): 42 nM; TGI (SNB-75 CNS): 2200 nM; GI50 (MDA-MB-231 breast): < 10 nM; TGI (MDA-MB-231 breast): 10.2 nM; GI50 (NCI-H226 lung): 68.5 nM; TGI (NCI-H226 lung): 1410 nM; GI50 (HOP-62 NSCLC): 30.9 nM; TGI (HOP-62 NSCLC): 1320 nM; GI50 (RXF 393 renal): 402 nM; TGI (RXF 393 renal): > 24100 nM; GI50 (SNB-19 CNS): 76.7 nM; TGI (SNB-19 CNS): > 28700 nM; GI50 (RPMI-8226 leukemia): 441 nM; TGI (RPMI-8226 leukemia): > 100000 nM; GI50 (HL-60(TB) leukemia): < 10 nM; TGI (HL-60(TB) leukemia): 2190 nM; GI50 (SK-MEL-2 melanoma): 225 nM; TGI (SK-MEL-2 melanoma): 1820 nM; GI50 (HCT-116 colon): 67900 nM; TGI (HCT-116 colon): > 100000 nM; GI50 (TK-10 renal): 727 nM; TGI (TK-10 renal): > 100000 nM; GI50 (OVCAR-8 ovarian): 32.3 nM; TGI (OVCAR-8 ovarian): > 21400 nM; GI50 (MOLT-4 leukemia): < 10 nM; TGI (MOLT-4 leukemia): > 100000 nM; GI50 (OVCAR-5 ovarian): 145 nM; TGI (OVCAR-5 ovarian): 30500 nM; GI50 (U251 CNS): > 25100 nM; TGI (U251 CNS): > 100000 nM; GI50 (SK-MEL-5 melanoma): 156 nM; TGI (SK-MEL-5 melanoma): 991 nM; GI50 (NCI-H460 lung): > 100000 nM; TGI (NCI-H460 lung): > 100000 nM; GI50 (OVCAR-4 ovarian): 436 nM; TGI (OVCAR-4 ovarian): > 70900 nM; GI50 (MDA-MB-435): 551 nM; TGI (MDA-MB-435): > 100000 nM; GI50 (KM12 colon): 276 nM; TGI (KM12 colon): > 100000 nM; GI50 (MDA-MB-468 breast): < 10 nM; TGI (MDA-MB-468 breast): 16.8 nM
